Data taken from US20240245633A1, “ROR Gamma Agonists as Enhancers of Protective Immunity” (University of Florida Research Foundation, Incorporated, priority 2015, published 2024).
Marks after values point to notes of the source that are not given here.

Experiments:
EL4 T lymphocytes = assay: qPCR gene expression in PMA/ionomycin stimulated EL4 cells; format: cell-based, murine; details: PMA/ionomycin 5 hr
Method: Here we used murine EL4 T lymphocytes or human Jurkat T cells as model systems to analyze gene expression upon T cell activation. Following treatment of cells with Phorbol 12-myristate 13-acetate (PMA) and ionomycin, the expression of granzyme B (cytotoxicity marker), PD-1 (immune checkpoint) and the RORγt target gene IL17 were analyzed by qPCR.
(§1) Gene expression and Cell sorting. Jurkat T cells were pre-incubated with compounds for 48 hr and activated with phorbol 12-myristate 13-acetate (PMA, 50 ng/mL; Sigma) and ionomycin (1 μg/mL; Sigma) for 5 hr. For qPCR, mRNA was isolated with an RNeasy midi kit using DNase I (Qiagen), and cDNA was synthesized with high capacity cDNA Reverse Transcription kit (Applied Biosystems). IL17A, PD-1, and granzyme B gene expression were normalized to the expression of GAPDH. The sequence of primers used in this study are found in Table 2. For cell sorting, activated Jurkat T cells were stained with APC conjugated anti-human PD-1 antibody (eBioscience). Cell sorting was performed using LSRII (BD Bioscience).

EL4 cells = assay: PD-1 surface expression in EL4 cells by flow cytometry; format: cell-based, murine; details: compound 48 hr
Method: (§2) Using flow cytometery surface PD-1 expression was analyzed to determine if the decrease in gene expression of PD-1 correlates to a decrease of the protein on the cell surface, Cell: surface PD-1 expression was measured in murine and human T cell lines as well as in ex vivo differentiated murine TH17 cells. […] Next we examined the impact of compound treatment on differentiated murine TH17 cells. […] To determine if there was an increase in the active T cell population during TH17 cell differentiation, the population of CD62L^−PD1^− double negative cells was measured using flow cytometry. […] To determine if the effects of SR0987 on PD-1 expression would be observed in a human cell line, Jurkat T cells were treated with the compound.
as §1, with “Cell sorting was performed using LSRII (BD Bioscience).” left out

[1] = system: differentiated TH17 cells; assay: TH17 cell differentiation, flow cytometry; format: cell-based, murine
Method: as §2
TH17 cell differentiation. For naïve T cell differentiation, CD4^+T cells were enriched by negative selection using a magnetic-activated cell sorter kit (Millipore). Enriched CD4+ T cells activated with 5 μg/mL of plate-abound anti CD3 antibody and 1 μg/mL of anti-CD28 antibody in the presence of 20 μg/mL of anti-IFNγ, 20 μg/mL of anti-IL-4, 1 ng/mL of TGFβ, AND 10 ng/mL of IL-6. Four-five days post differentiation, all cells were stimulated for 5 hr with 5 ng/mL of phorbol-12-myristate-13-acetate (Sigma) and 500 ng/mL of ionomycin (Sigma) contained with brefeldin A solution (eBioscience).

Jurkat T cells = assay: PD-1 surface expression in Jurkat T cells; format: cell-based, human
Method: as §2
as §1, with “Cell sorting was performed using LSRII (BD Bioscience).” left out

[2] = target: T1, RORγ LBD / SRC1-3 NR box peptide (Homo sapiens, UniProt P51449); assay: NR box peptide interaction assay (TR-FRET); format: biochemical; details: concentration response
T1 sequence (P51449 269-508 limits assumed): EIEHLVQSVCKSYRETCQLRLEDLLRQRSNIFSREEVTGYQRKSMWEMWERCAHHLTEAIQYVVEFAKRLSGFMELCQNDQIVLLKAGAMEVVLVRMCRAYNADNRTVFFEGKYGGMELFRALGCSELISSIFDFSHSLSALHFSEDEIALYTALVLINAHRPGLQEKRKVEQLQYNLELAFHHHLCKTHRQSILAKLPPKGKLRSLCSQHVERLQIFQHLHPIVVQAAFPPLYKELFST
Method: NR box peptide interaction assay. A TR-FRET-based interaction assay was used. […] The mixtures were incubated for 2 hr at R.T., and fluorescence intensity was measured on an Envision pate reader with excitation at 340 nm and emission at 490 nm and 520 nm. The ratio of intensity at 520 nm/490 nm was used to calculate cofactor recruitment activity.

[3] = target: T2, RORγt LBD pretreated with ursolic acid (Homo sapiens, UniProt P51449); assay: Differential HDX-MS of RORγt pretreated with ursolic acid ± compound; format: binding
T2 construct: 5 μL of a 10 μM RORγt LBD solution (Apo or in complex with 10-excess compound)
T2 sequence (P51449 269-508 limits assumed): T1 sequence (P51449 269-508 limits assumed)
Excerpt: While the mechanism of action of RORγt agonists on regulation of the immune checkpoint receptor PD-1 is unclear, a correlation between RORγt and PD-1 expression has been observed in PD-1 knockout mice Z Regardless, to gain insights into the structural mechanism for agonist activity we examined the impact of putative agonist ligands on the conformational dynamics of RORγt. To achieve this, we utilized differential hydrogen/deuterium exchange (HDX) mass spectrometry.
HDX-MS. Solution-phase amide HDX was performed with a fully automated system as described previously with minor modifications^30,31. For differential HDX experiments, 5 μL of a 10 μM RORγt LBD solution (Apo or in complex with 10-excess compound) was diluted to 25 μL with D20-containing HDX buffer, and incubated at 4° C. for; 10 s, 30s, 60s, 900s, and 3,600s, Following on-exchange, unwanted forward or back exchange is minimized and the protein is denatured by dilution to 50 μL with 0.1% TFA in 3M urea (held at 4° C., pH 2.5). Samples are then passed across an immobilized pepsin column (prepared in house) at 50 μL min−1 (0.1% TFA, 15° C.) and the resulting peptides are trapped onto a Ce trap cartridge (Thermo Fisher, Hypersil Gold). Peptides were then gradient eluted (4% CH3CN to 40% CH3CN, 0,3% formic acid over 5 minutes, 4° C.) across a 1 mm×50 mm Cia HPLC column (Hypersil Gold, Thermo Fisher) and electrosprayed directly into a high resolution orbitrap mass spectrometer (Exactive, Thermo Fisher). Percent deuterium exchange values for peptide isotopic envelopes at each time point were calculated and processed using HDX Workbench^32 and overlaid onto RORγt crystal structures using pyMOL (DeLano Scientific). HDX data is presented as an average of three individual replicates across […] time points (10s, 60s, 300s, 900s, and 3600s).

RORγt = target: T3, RORγt (Homo sapiens, UniProt P51449); details: Circular Dichroism; cited from earlier work
T3 sequence (P51449 1-497 isoform P51449-2): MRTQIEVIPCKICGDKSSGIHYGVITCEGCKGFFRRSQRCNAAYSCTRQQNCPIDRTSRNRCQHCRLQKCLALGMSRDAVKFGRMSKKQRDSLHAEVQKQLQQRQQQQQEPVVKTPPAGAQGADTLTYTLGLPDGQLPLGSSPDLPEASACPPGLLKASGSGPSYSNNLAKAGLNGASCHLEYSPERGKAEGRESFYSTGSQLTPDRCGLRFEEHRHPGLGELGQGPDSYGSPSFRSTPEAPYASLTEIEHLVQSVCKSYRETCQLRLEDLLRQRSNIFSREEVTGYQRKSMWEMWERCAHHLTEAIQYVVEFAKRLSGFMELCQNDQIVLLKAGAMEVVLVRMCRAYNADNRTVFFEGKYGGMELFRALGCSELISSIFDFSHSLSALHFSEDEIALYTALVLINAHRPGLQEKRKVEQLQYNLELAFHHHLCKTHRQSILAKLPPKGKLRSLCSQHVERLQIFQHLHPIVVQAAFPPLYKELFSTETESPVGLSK

[4] = system: ROR target genes FGF21 and G6Pase; details: in cells and in vivo; cited from earlier work
[5] = target: ligand binding domain (LBD) of RORγt (Homo sapiens, UniProt P51449); details: read-out: IC50, competitive radioligand binding; cited from earlier work
Gal4-RORγ = target: T4, Gal4-RORγ (Homo sapiens, UniProt P51449); assay: cell-based; details: HEK-293T, read-out: fold induction of reporter gene expression
T4 sequence (P51449 269-508 limits assumed): T1 sequence (P51449 269-508 limits assumed)

O=C(Nc1ccc(C(O)(C(F)(F)F)C(F)(F)F)cc1)c1ccccc1Cl [SR0987, 2-chloro-N-(4-(1,1,1,3,3,3-hexafluoro-hydroxypropan-2-yl)phenyl)benzamide]
IL17 mRNA expression (EL4 T lymphocytes): further increase in expression of IL17 | PD-1 mRNA expression (EL4 T lymphocytes): decrease in expression of PD-1 | granzyme B mRNA expression (EL4 T lymphocytes): did not impact the expression of granzyme B | surface expression of PD-1 (EL4 cells): statistically significant reduction of the surface expression of PD-1 | CD62L−PD1−CD4+ cell population ([1]; compared to DMSO treated cells): statistically significant increase | IL17 production (intracellular staining of IL17A) ([1]; murine TH17 cells): trend towards increased IL17 production | surface PD-1 expression ([1]; murine TH17 cells): repress surface PD-1 expression | cell surface PD-1 expression (Jurkat T cells): decreased cell surface PD-1 expression

O=C(Nc1ccc(C(O)(C(F)(F)F)C(F)(F)F)cc1)c1ccc(C(F)(F)F)cc1 [SR1078]
interaction of RORγt with SRC1-3 NR box peptide [2]: concentration dependent increase in interaction | protection to solvent exchange in H12 ([3]; RORγt exposed to ursolic acid, then compound): induced protection to solvent exchange in H12 | Differential HDX kinetics, peptide TEIEHLVQ ([3]; UA pretreated, 268-275, charge 2, H1): −2(3)* | Differential HDX kinetics, peptide TEIEHLVQSVC ([3]; UA pretreated, 268-278, charge 2, H1): 0(3)* | Differential HDX kinetics, peptide TEIEHLVQSVCKS ([3]; UA pretreated, 268-280, charge 3, H1): 1(4)* | Differential HDX kinetics, peptide TEIEHLVQSVCKSYRETCQ ([3]; UA pretreated, 268-286, charge 3, H1): 0(3)* | Differential HDX kinetics, peptide TEIEHLVQSVCKSYRETCQ ([3]; UA pretreated, 268-286, charge 4, H1): 1(3)* | Differential HDX kinetics, peptide RLEDL ([3]; UA pretreated, 288-292, charge 1, H2): −2(4)* | Differential HDX kinetics, peptide RLEDLL ([3]; UA pretreated, 288-293, charge 1, H2): −3(5)* | Differential HDX kinetics, peptide EVTGYQRKSMWEM ([3]; UA pretreated, 304-316, charge 2, H3/H4): 1(4)* | Differential HDX kinetics, peptide WERCAHHLTEAIQ ([3]; UA pretreated, 317-329, charge 3, H4): 0(1)* | Differential HDX kinetics, peptide WERCAHHTEAIQY ([3]; UA pretreated, 317-330, charge 3, H4): 1(1)* | Differential HDX kinetics, peptide WEGAKRLSGF ([3]; UA pretreated, 331-341, charge 2, H4/H5): 0(2)* | Differential HDX kinetics, peptide FAKRLSGF ([3]; UA pretreated, 334-341, charge 2, H4/H5): 0(2)* | Differential HDX kinetics, peptide CQNDQM ([3]; UA pretreated, 345-352, charge 1, H5/H6): 0(1)* | Differential HDX kinetics, peptide CRAYNADNRTVF ([3]; UA pretreated, 368-377, charge 2, B1): 2(1)* | Differential HDX kinetics, peptide YNADNRTVF ([3]; UA pretreated, 369-377, charge 2, B1): 1(3)* | Differential HDX kinetics, peptide FEGKYGGMEL ([3]; UA pretreated, 378-387, charge 2, B2/H7): 2(3)* | Differential HDX kinetics, peptide FRALGCSEL ([3]; UA pretreated, 388-395, charge 2, H7/H8): −1(2)* | Differential HDX kinetics, peptide LISSIFDFSHSLSAL ([3]; UA pretreated, 396-410, charge 2, H8): 2(2)* | Differential HDX kinetics, peptide ISSIFD ([3]; UA pretreated, 397-407, charge 1, H8): 1(2)* | Differential HDX kinetics, peptide ISSIFDFSHSLSAL ([3]; UA pretreated, 397-410, charge 2, H8): 2(2)* | Differential HDX kinetics, peptide IFDFSHSLSAL ([3]; UA pretreated, 400-410, charge 2, H8): 3(2)* | Differential HDX kinetics, peptide DFSHSKSAL ([3]; UA pretreated, 402-410, charge 2, H8): 2(2)* | Differential HDX kinetics, peptide FSHSLSAL ([3]; UA pretreated, 403-410, charge 2, H8): 2(3)* | Differential HDX kinetics, peptide AXLPPXGKLRSLCSQ ([3]; UA pretreated, 454-478, charge 3, H11): 0(4)* | Differential HDX kinetics, peptide HVERLQIFQHLHPIWQ ([3]; UA pretreated, 479-495, charge 2, H11): −6(3)* | Differential HDX kinetics, peptide AAFPPLYKEL ([3]; UA pretreated, 496-505, charge 2, H12): −7(2)* | Differential HDX kinetics, peptide AAFPPLYKELF ([3]; UA pretreated, 496-506, charge 2, H12): −5(2)* | Differential HDX kinetics, peptide HFSEDEIAL ([3]; UA pretreated, charge 2, H9): 0(1)* | Differential HDX kinetics, peptide QIFQHLHPIWQ ([3]; UA pretreated, charge 2, H11): −10(3)* | Differential HDX kinetics, peptide TEIEHLVQSVCKSYRETCQL ([3]; UA pretreated, charge 3, H1): 0(4)* | Differential HDX kinetics, peptide VRMCRAYNADNRTVF ([3]; UA pretreated, charge 3, H6/B1): 1(1)* | interaction with RORγt via thermal shift assay (RORγt): direct interaction | expression of ROR target genes FGF21 and G6Pase [4]: induced the expression of the ROR target genes FGF21 and G6Pase | IC50 [5]: ~15 µM | fold induction at 30 µM (Gal4-RORγ): ≥ 2
